# Data published in paper PMC4585962, “A peptide factor secreted by Staphylococcus pseudintermedius exhibits properties of both bacteriocins and virulence factors” (Scientific Reports, 2015).
# No end group written: not given here. *: point of attachment. For = O=C*
# What was measured:
# [1] = test system: RAW264.7 cells; experiment: NO synthesis (nitrite, Griess reagent); assay type: cell-based, murine; conditions: 24 h
# Procedure: (§1) The murine monocyte/macrophage cell line P388/D1 and murine macrophage-like cell line RAW264.7 were grown in a 96-well plate in DMEM supplemented with 5% (v/v) FBS. Prior to the experiment, the medium was replaced with fresh DMEM enriched with 2% (v/v) of FBS (negative control) or supplemented with 1) 100 ng/ml lipopolysaccharide (LPS, Sigma), 2) 10 ng/ml IFN [drawing 9] (R&D Systems), 3) 0.01–1000 nM BacSp222, or 4) BacSp222 combined with LPS or IFN [drawing 10] . The cells were then cultured for another 24 h to induce iNOS expression and nitric oxide synthesis. The nitrite levels were measured in culture medium by a nitrate assay performed on a microplate. One hundred microliters of cultured media was incubated with 100 μl of Griess reagent (1% (w/v) sulphanilic acid/0.1% (w/v) N-(1-naphtyl) ethylenediaminedihydrochloride (Sigma) in 2.5% (v/v) H3PO4) at room temperature for 10 min. Then, the absorbance was measured at 545 nm using a microplate reader (PowerWave X, BioTek Instruments). Before use, the solution of BacSp222 was tested for LPS contamination using an E-TOXATE assay kit (Sigma). The measurements ascertained that the level of LPS in 1 μM bacteriocin solution was equal to or less than 3 pg/ml.
# [2] = test system: P388D1 cells; experiment: NO synthesis (nitrite, Griess reagent); assay type: cell-based, murine; conditions: 24 h
# Procedure: as §1
# [3] = Temperature stability, residual bactericidal activity; assay type: physicochemical; conditions: 30 μM in PBS, full cycle of autoclaving, 20 min at 121 °C; radial diffusion assay on B. subtilis; 100% = untreated BacSp222; triplicate ± SD
# Procedure: The bactericidal activity of BacSp222 was also determined using the radial diffusion assay. In TSB agar (1%, w/v) containing a 200× diluted overnight culture of Bacillus subtilis ATCC 6633, wells of 2.4-mm diameter were created by drilling out the agar and filling the hole with 10 μl of the BacSp222 preparation for testing. Following overnight incubation at 37 °C, the bactericidal activity was measured as the area of the inhibition zones.
# The temperature stability of BacSp222 (30 μM final concentration) was determined in PBS. The solution was incubated for 1 or 3 h at 72 °C (typical temperature of pasteurization) or at 100 °C. Independently, a solution of bacteriocin was also subjected to a full cycle of autoclaving (20 min at 121 °C). The susceptibility of BacSp222 to proteolysis was verified using S. aureus staphopain C and V8 peptidase, human neutrophil elastase, human cathepsin G (Biocentrum), bovine TPCK-treated trypsin, pepsin from porcine gastric mucosa (Sigma), and proteinase K (A&A Biotechnology). […] The residual activity was determined with the radial diffusion assay using Bacillus subtilis as an indicator strain. […]
# [4] = Conformational stability by CD, ellipticity at 220 nm against temperature; assay type: physicochemical; conditions: 125 μg/ml in PBS, 20–90 °C at 1 °C/min
# Procedure: The circular dichroism (CD) spectra of BacSp222 (125 μg/ml in PBS) were recorded using a J-715 spectropolarimeter (Jasco). The spectra were recorded at room temperature in the range 190–240 nm and were averaged over three independent passes. The amount of secondary structures was estimated by fitting the measured spectra to the reference spectra of natural native proteins (Prot, Jasco) or synthetic polypeptides (Yang, Jasco). To evaluate the conformational stability of the BacSp222 molecule at different temperatures, the ellipticity of the polarized light was recorded at 220 nm over the temperature range 20–90 °C at 1 °C/min increments.
# [5] = 0.01–1000 nM BacSp222 with LPS 100 ng/ml
# [6] = nanomolar concentrations of BacSp222 with IFNγ 10 ng/ml
substance,measurement,setting,value
For-MAGLLRFLLSKGRALYNWAKSHVGKVWEWLKSGATYEQIKEWIENALGWR [BacSp222],effect on LPS-induced NO production,[1]; [5],did not affect
same,NO production after exposure to BacSp222 alone,"[1]; 0.01–1000 nM, DMEM 2% FBS, nitrite at 545 nm",Only P388D1 cells were able to produce NO
same,NO release with BacSp222 together with IFNγ,[1]; [6],released NO in a dose-dependent manner
same,effect on LPS-induced NO production,[2]; [5],did not affect
same,NO production after exposure to BacSp222 alone,"[2]; at 100 and 1000 nM, DMEM 2% FBS, nitrite at 545 nm",able to produce NO
same,NO release with BacSp222 together with IFNγ,[2]; [6],released NO in a dose-dependent manner
same,activity against the indicator strain after autoclaving,[3],55 ± 8.8%
same,ellipticity at 220 nm at elevated temperatures,[4],"lack of changes in ellipticity at 220 nm, up to 90 °C"
